In one assay the target is T1, 5α-reductase 1 (Homo sapiens, UniProt P18405).
T1 construct: made in house; host or cells: COS7 cells (ATCC, CRL 1651), transient transfection with pSG5; 100,000 x g pellet of the lysate
T1 sequence (P18405 1-259): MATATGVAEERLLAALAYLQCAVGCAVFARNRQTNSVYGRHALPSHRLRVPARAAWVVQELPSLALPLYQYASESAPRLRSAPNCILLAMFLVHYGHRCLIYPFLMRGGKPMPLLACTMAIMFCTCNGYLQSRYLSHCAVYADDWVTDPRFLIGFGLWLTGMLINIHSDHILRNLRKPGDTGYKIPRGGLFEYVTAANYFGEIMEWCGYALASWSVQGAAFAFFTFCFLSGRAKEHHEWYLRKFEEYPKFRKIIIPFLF
Put plainly: Inhibition of type 1 5α-reductase (14C-testosterone to DHT conversion, lysate of transfected COS7 cells). The class given is biochemical. As to conditions: for IC50: pH 6.5 phosphate buffer, 1 nM 14C-testosterone, 5 mM NADPH, 50 minutes at 37° C., read-out: 5α-reductases: IC50 Type I; for quality as inhibitor of 5α-reductase (in words): statement covers both types of 5α-reductase; for specificity with respect to type 1 5α-reductase (in words): type 1 versus type 2. The source says:
(§1) The coding sequences (complementary deoxyribonucleic acids: cDNA) of 5α-reductase 1 and of 5α-reductase 2 were cloned in the eukaryotic expression vector pSG5 (Stratagene). The enzymes were over-expressed after transient transfection of COS7 cells (ATCC, CRL 1651). The cDNAs of 5α-reductase 1 and of 5α-reductase 2 were obtained by reverse transcription and polymerase chain reaction (PCR) using specific primers, starting with total RNA from human testicles (sold by the company Clontech).
The primers used to obtain the 5α-reductase 1 cDNA are:
+ strand: 5′ […] 3′,
− strand: 5′ […] 3′.
(§2) By standard genetic engineering techniques, the 5α-reductase 1 cDNA obtained was inserted into the BamHI site of pSG5 and that of 5α-reductase 2 was inserted into the EcoRI site (see Maniatis et al., Molecular Cloning, Cold Spring Harbor, 1989).
(§3) The positive clones (recombinants) were identified by the hybridization technique with a cold probe (Plex luminescent kits, Millipore) and mapped by enzymatic digestions and partial sequencing.
(§4) After transient transfection, the COS7 cells are lysed in a 10 mM Tris-HCl, pH=7/150 mM KCl/1 mM EDTA buffer by 3 cycles of freezing/thawing. The homogenate is centrifuged at 100,000× g for 1 hour. The pellets containing the 5α-reductase 1 or the 5α-reductase 2 are taken up in a 40 mM, pH 6.5 phosphate buffer or a 40 mM, pH 5.5 citrate buffer for the 5α-reductase 1 or 5α-reductase 2, respectively.
(§5) 5 μg of proteins thus obtained are incubated in a well of a 96-well plate (NUNC) in the presence of 1 nM ^14C-testosterone (Amersham) and 5 mM nicotinamide […] dinucleotide phosphate, reduced form (NADPH) (Sigma) in the corresponding buffer (40 mM, pH 6.5 phosphate buffer or 40 mM, pH 5.5 citrate buffer for the 5α-reductase 1 or 5α-reductase 2, respectively) for 50 minutes at 37° C. after addition of the test products. The test products are added at concentrations of 10^−4 M to 10^−10 M, diluted in 40 mM, pH 6.5 phosphate buffer or 40 mM, pH 5.5 citrate buffer for the 5α-reductase 1 or 5α-reductase 2, respectively.
(§6) The reaction mixtures are then placed directly on a silica plate (HPTLC, 60F 254, Merck) and subjected to chromatography (solvent=10% diethyl ether, 90% dichloromethane). They are then analysed by digital autoradiography (Berthold).
(§7) The inhibition of the activity of the isoenzymes is measured by calculating the percentage of dihydrotestosterone formed from ^14C-testosterone relative to an untreated control.

For another assay, the target named is T2, 5α-reductase 2 (Homo sapiens, UniProt P31213).
T2 construct: made in house; host or cells: COS7 cells (ATCC, CRL 1651), transient transfection with pSG5; 100,000 x g pellet of the lysate
T2 sequence (P31213 1-254): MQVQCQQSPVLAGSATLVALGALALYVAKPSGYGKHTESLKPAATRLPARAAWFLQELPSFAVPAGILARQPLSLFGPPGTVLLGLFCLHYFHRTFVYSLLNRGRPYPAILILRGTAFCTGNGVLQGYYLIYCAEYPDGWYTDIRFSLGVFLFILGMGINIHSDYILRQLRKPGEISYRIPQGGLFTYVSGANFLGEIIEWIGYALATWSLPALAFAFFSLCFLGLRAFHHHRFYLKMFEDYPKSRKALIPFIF
Nature of the assay: Inhibition of type 2 5α-reductase (14C-testosterone to DHT conversion, lysate of transfected COS7 cells). The class given is biochemical. As to conditions: for IC50: pH 5.5 citrate buffer, 1 nM 14C-testosterone, 5 mM NADPH, 50 minutes at 37° C., read-out: 5α-reductases: IC50 Type II; for specificity for the type 2 5α-reductase (in words): type 2 versus type 1.
Description: as §1
The primers used to obtain the 5α-reductase 2 cDNA are:
+ strand: 5′ GCGATGCAGGTTCAGTG 3′
− strand: 5′ ATTGTGGGAGCTCTGCT 3′.
as §2, §3, §4, §5, §6, §7

Usually IC50 stands for the point on the concentration scale where inhibition reaches its midpoint. Take `Cc1c(C(=O)O)[nH]c2cc(OCc3ccccc3)c(OCc3ccccc3)cc12` [Compound b, 5,6-bis(benzyloxy)-3-methyl-1H-indole-2-carboxylic acid]: at 5α-reductase 1, the IC50 was over 100 µM, the “quality as inhibitor of 5α-reductase (in words)” value is on record as “moderate inhibitor” and the “specificity with respect to type 1 5α-reductase (in words)” value is listed as “more pronounced specificity for the type 1 5α-reductase”. The IC50 on 5α-reductase 2 amounted to 1 µM.

Take `COc1cc(OCc2ccccc2)c2cc(C(=O)O)[nH]c2c1` [Example 1, 4-benzyloxy-6-methoxy-1H-indole-2-carboxylic acid]: at 5α-reductase 1, the half-maximal inhibitory concentration (IC50) lay in the range of 1 to 4 µM and the “specificity with respect to type 1 5α-reductase (in words)” value was “very pronounced specificity with respect to type 1 5α-reductase”. The 50% inhibitory concentration (IC50) on 5α-reductase 2 was over 100 µM.

On to `COc1cc(OCc2cc(C(F)(F)F)cc(C(F)(F)F)c2)c2cc(C(=O)O)[nH]c2c1` [Example 2, 4-[3,5-bis(trifluoromethyl)benzyloxy]-6-methoxy-1H-indole-2-carboxylic acid], for which, on 5α-reductase 1, the IC50 amounted to 10 µM and the “specificity with respect to type 1 5α-reductase (in words)” value was “very pronounced specificity with respect to type 1 5α-reductase”. For the same compound, on 5α-reductase 2, the IC50 is over 100 µM.

Take `COc1cc2[nH]c(C(=O)O)cc2cc1OCc1cc(C(F)(F)F)cc(C(F)(F)F)c1` [Example 3, 5-[3,5-bis(trifluoromethyl)benzyloxy]-6-methoxy-1H-indole-2-carboxylic Acid]: on 5α-reductase 1, the IC50 was 0.5 µM and the “quality as inhibitor of 5α-reductase (in words)” value was “very good inhibitors of the two types of 5α-reductase”. Further, at 5α-reductase 2, the IC50 lay within 0.001 to 0.005 µM.

Regarding `COc1cc2[nH]c(C(=O)O)cc2cc1OCc1cc(OC)c(OC)c(OC)c1` [Example 4, 5-(3,4,5-trimethoxybenzyloxy)-6-methoxy-1H-indole-2-carboxylic acid], the half-inhibitory concentration (IC50) at 5α-reductase 1 is over 100 µM; on 5α-reductase 2, 0.01 µM. At 5α-reductase 2, the “specificity for the type 2 5α-reductase (in words)” value was “more pronounced specificity for the type 2 5α-reductase”.

With `COc1ccc(COc2cc3cc(C(=O)O)[nH]c3cc2OC)cc1` [Example 5, 5-(4-methoxybenzyloxy)-6-methoxy-1H-indole-2-carboxylic acid], at 5α-reductase 1, the IC50 fell in the range of 1 to 5 µM and the “quality as inhibitor of 5α-reductase (in words)” value is on record as “very good inhibitors of the two types of 5α-reductase”. The IC50 on 5α-reductase 2 is 0.01 µM.

On to `COc1cc2[nH]c(C(=O)O)cc2cc1OCc1ccc(C#N)cc1` [Example 6, 5-(4-cyanobenzyloxy)-6-methoxy-1H-indole-2-carboxylic acid], for which, at 5α-reductase 1, the IC50 amounted to 5 µM and the “quality as inhibitor of 5α-reductase (in words)” value is given as “very good inhibitors of the two types of 5α-reductase”. The IC50 at 5α-reductase 2 came out at 0.04 µM.

Take `O=C(O)c1cc2c(ccc3ccccc32)[nH]1` [Example 7, 3H-benz[e]indole-2-carboxylic acid]: on 5α-reductase 1, the IC50 is 3 µM and the “specificity with respect to type 1 5α-reductase (in words)” value was “pronounced specificity with respect to type 1 5α-reductase”. The IC50 at 5α-reductase 2 stood at 6 µM.

In the case of `Cn1c(C(=O)O)cc2c3ccccc3ccc21` [Example 8, 3-methyl-3H-benz[e]indole-2-carboxylic Acid], at 5α-reductase 1, the IC50 was 0.5 µM and the “specificity with respect to type 1 5α-reductase (in words)” value is listed as “pronounced specificity with respect to type 1 5α-reductase”. Further, the half-inhibitory concentration (IC50) at 5α-reductase 2 is 10 µM.

On to `COc1cc2[nH]c(C(=O)O)cc2cc1OCc1ccccc1` [a, 5-benzyloxy-6-methoxy-1H-indole-2-carboxylic acid], for which, at 5α-reductase 1, the IC50 worked out at 1 µM and the “quality as inhibitor of 5α-reductase (in words)” value is reported as “very good inhibitors of the two types of 5α-reductase”. Moreover, the IC50 on 5α-reductase 2 was found to be 0.001 µM.

Turning to `O=C(O)c1cc2cc(OCc3ccccc3)c(OCc3ccccc3)cc2[nH]1` [c, 5,6-bis(benzyloxy)-1H-indole-2-carboxylic acid], the concentration for half-maximal inhibition (IC50) on 5α-reductase 1 was over 100 µM. In addition, on 5α-reductase 2, the IC50 was found to be 0.005 µM and the “specificity for the type 2 5α-reductase (in words)” value was “more pronounced specificity for the type 2 5α-reductase”.

Source of the values: patent US6596753B2, “Compounds of the indolecarboxylic family and use thereof” (Societe L'Oreal S.A., priority 1997, dated 2003).
